Experimental data as given in patent US4389394A, “Methods for reducing dental caries” (Talres Development (N.A.) N.V., priority 1978, dated 1983).
“Also recorded” adds a separate entry of the source.

Assays:
dental plaque = assay: (F) Human volunteers: acid production by dental plaque after mouthrinse (glucose pre-rinse); format: in vivo; details: statement in words
Description: The compound 4,1',6'-trichloro-4,1',6'-trideoxygalactosucrose was selected as a suitable candidate for further testing. A mouthrinse in accordance with the invention was prepared using the selected compound as active ingredient. The level of the active ingredient was initially chosen to be such that the mouthrinse tasted the same as a 15% w/v solution of sucrose.
Six subjects were used, who were first acquainted with the available toxicological data and who subsequently agreed to take part in the tests. The subjects were instructed not to clean their teeth on their day of testing. At sampling time, 0 min, each subject took 5% w/v glucose mouthrinse for 2 minutes, then waited a further 8 minutes before the buccal and lingual plaque of one side of the jaw (upper and lower) was removed and placed on aluminium foil and sealed. […]
Samples (0.2 ml) were tested after admixture with 0.1 ml 5% w/v glucose and 0.2 ml sterile saliva. The pH was monitored in quadruplicated tests.
Pooling of data at different times was not justifiable, and the Duncan procedure could not be followed. Data was therefore analysed by computer using an `Analysis of Variance` program and a `Description of Populations` program.

S. mutans [1] = assay: (C) Further tests on pH reduction; format: cell-based, Streptococcus mutans; details: for Mean pH: 0.055 molar chlorodeoxy derivative, pooled data for 2, 3 and 4 hours, Duncan procedure
Description: (§1) Plain aqueous solutions were used and also solutions containing amino acids (protein hydrolysate) 1% w/v to approximate the buffering effect of natural saliva. Control experiments were effected using no saccharide in order to illustrate the endogenous metabolism of the organism. Each experiment was quadruplicated and was run at 37° C. The pH was measured at 0, 0.5, 1, 1.5,2, 3 and 4 hours.
Twelve sets of tests were carried out in the same way as described above at (A) but using solutions which were 0.055 molar in the respective chlorodeoxy derivative.
Solutions of the following were employed:
(i) Saline, negative control for endogenous metabolism
(ii) Sucrose, positive control
(iii) 6,1',6'-trichloro-6,1',6'-trideoxysucrose, compound no. 7.
(iv) Compound no. 7 plus sucrose.
(v) 1',6'-dichloro-1',6'-dideoxysucrose, compound no. 4
(vi) Compound no. 4 plus sucrose
(vii) 4,1',6'-trichloro-4,1',6'-trideoxygalactosucrose, Compound no. 5.
(viii) Compound no. 5 plus sucrose
(ix) 4,6,6'-trichloro-4,6,6'-trideoxygalactosucrose, Compound no. 6
(x) Compound no. 6 plus sucrose
(xi) 1'-chloro-1'-deoxysucrose, compound no. 1
(xii) Compound no. 1 plus sucrose
The acid production was monitored as before.

[2] = West German Offenlegungsschrift No. 2700036; cited from earlier work
S. mutans [3] = assay: (D) Further tests on adherence to teeth; format: cell-based, Streptococcus mutans; details: for adherence of the cells: statement in words; for % coverage after 0.5 hours / % coverage after 4 hours: glass slide, 0.055 molar, Duncan procedure
Description: (§2) The extent to which cells of S. mutans adhere to teeth was investigated using a recognized model system. Solutions of the same substances as in (A) were made up, and the degree of deposition of suspended cells on to glass was studied using a "Magiscan" image analyser (Talyer et al., 1978 Praktischen Metallographie, Sonderbande 8: 433-442).
While recording the pH during the tests of (C), the adherence was monitored in the same way as in (B). The percentage coverage of a glass slide was determined at 0.5 and 4 hours for each solution, and the results treated by the Duncan procedure.

[4] = tested on: Streptococcus mutans NCTC 10832; assay: (A) Effect on reduction of pH by Streptococcus mutans; format: cell-based; details: for pH: 0.05 molar each saccharide, 37° C; for Mean pH: Duncan Procedure sub-sets, amino acids where named in the solution
Source text: Mouth flora such as S. mutans cause dental caries by producing acid which erodes the tooth enamel. The cells exude a polysaccharide which firmly adheres them to the tooth surfaces as plaque, thus enhancing the local erosion by the acid. The effect of chlorodeoxysucroses on acid production by S. mutans in sucrose solutions was studied in comparison with the effect produced by xylitol, an agent proposed as a caries preventative.
as §1

S. mutans [5] = assay: (B) Adherence to teeth: deposition of suspended cells on to glass (Magiscan image analyser); format: cell-based, Streptococcus mutans; details: for Coverage (%) after 0.5 h / Coverage (%) after 4.0 h: mean of 40 determinations
Source text: as §2
Each reading is the mean of 40 determinations.

S. mutans [6] = assay: Scanning electron microscopy of glass with adherent cells; format: cell-based, Streptococcus mutans; details: sucrose medium; qualitative
[7] = 0.5 hours, in the presence of sucrose

O[C@@H]1[C@@H](O)[C@@H](O[C@]2(CCl)O[C@H](CCl)[C@@H](O)[C@@H]2O)O[C@H](CCl)[C@H]1O
antiacidogenic effect on plaque (dental plaque): Statistically conclusive proof that the mouthrinse was evincing an anti-acidogenic effect was not available
yield of plaque as perceived by subjects (dental plaque): increased the yield of plaque

OC[C@H]1O[C@@](CCl)(O[C@H]2O[C@H](CO)[C@@H](O)[C@H](O)[C@H]2O)[C@@H](O)[C@@H]1O [Compound no. 1, 1'-chloro-1'-deoxysucrose]
Mean pH (S. mutans [1]): 5.09
sweetness relative to sucrose [2]: do not possess such strong sweetening action
adherence of the cells (S. mutans [3]; [7]): most active compounds at 0.5 hours
adherence of the cells (S. mutans [3]; 4 hours): the most active
% coverage after 0.5 hours (S. mutans [3]): 35.6%
% coverage after 4 hours (S. mutans [3]): 52.3%

OC[C@H]1O[C@H](O[C@]2(CCl)O[C@H](CCl)[C@@H](O)[C@@H]2O)[C@H](O)[C@@H](O)[C@@H]1O [Compound no. 4, 1',6'-dichloro-1',6'-dideoxysucrose]
Mean pH (S. mutans [1]): 5.48
sweetness relative to sucrose [2]: many times sweeter than sucrose
adherence of the cells (S. mutans [3]; [7]): falling in the sub-set g which includes sucrose itself
adherence of the cells (S. mutans [3]; 4 hours): did not reduce the adherence
% coverage after 0.5 hours (S. mutans [3]): 51.6%
% coverage after 4 hours (S. mutans [3]): 70.3%

OC[C@@]1(O[C@H]2O[C@H](CCl)[C@H](Cl)[C@H](O)[C@H]2O)O[C@H](CCl)[C@@H](O)[C@@H]1O [Compound no. 6, 4,6-dichloro-4,6-dideoxy-α-D-galactopyranosyl-6-chloro-6-deoxy-β-D-fructofuranoside]
Mean pH (S. mutans [1]): 5.20
sweetness relative to sucrose [2]: do not possess such strong sweetening action
% coverage after 0.5 hours (S. mutans [3]): 51.6%
% coverage after 4 hours (S. mutans [3]): 70.8%

O[C@@H]1[C@@H](O)[C@@H](O[C@]2(CCl)O[C@H](CCl)[C@@H](O)[C@@H]2O)O[C@H](CCl)[C@H]1O [Compound no. 7, 6,1',6'-trichloro-6,1',6'-trideoxysucrose]
Mean pH (S. mutans [1]): 6.48
effect on acid production / pH (S. mutans [1]; statement in words, pooled 2, 3 and 4 hours): especially effective
sweetness relative to sucrose [2]: many times sweeter than sucrose
adherence of the cells (S. mutans [3]; [7]): most active compounds at 0.5 hours
adherence of the cells (S. mutans [3]; 4 hours): the most active
% coverage after 0.5 hours (S. mutans [3]): 29.7%
% coverage after 4 hours (S. mutans [3]): 54.2%

OC[C@H]1O[C@@](CO)(O[C@H]2O[C@H](CO)[C@@H](O)[C@H](O)[C@H]2O)[C@@H](O)[C@@H]1O [Sucrose, sucrose]
pH ([4]; 0 h, no amino acids): 5.69
pH ([4]; 0 h, with amino acids 1% w/v): 5.98
pH ([4]; 0.5 h, no amino acids): 4.57
pH ([4]; 0.5 h, with amino acids 1% w/v): 5.55
pH ([4]; 1.0 h, no amino acids): 4.57
pH ([4]; 1.0 h, with amino acids 1% w/v): 5.36
pH ([4]; 1.5 h, no amino acids): 4.58
pH ([4]; 1.5 h, with amino acids 1% w/v): 5.10
pH ([4]; 2.0 h, no amino acids): 4.54
pH ([4]; 2.0 h, with amino acids 1% w/v): 5.00
pH ([4]; 3.0 h, no amino acids): 4.63
pH ([4]; 3.0 h, with amino acids 1% w/v): 4.92
pH ([4]; 4.0 h, no amino acids): 4.55
pH ([4]; 4.0 h, with amino acids 1% w/v): 4.79
Mean pH [4]: 4.57
Coverage (%) after 0.5 h (S. mutans [5]; no amino acid): 37.28%
Coverage (%) after 4.0 h (S. mutans [5]; no amino acid): 65.83%
Coverage (%) after 0.5 h (S. mutans [5]; with amino acid): 31.89%
Coverage (%) after 4.0 h (S. mutans [5]; with amino acid): 75.95%
extracellular coating and size of clumps of adherent cells (S. mutans [6]): characteristically clumped and were coated with extracellular polysaccharide
Mean pH (S. mutans [1]): 4.33
% coverage after 0.5 hours (S. mutans [3]): 51.2%
% coverage after 4 hours (S. mutans [3]): 69.2%

OC[C@@H](O)[C@H](O)[C@@H](O)CO [Xylitol, xylitol]
pH ([4]; 0 h, no amino acids): 5.94
pH ([4]; 0.5 h, no amino acids): 5.50
pH ([4]; 1.0 h, no amino acids): 5.42
pH ([4]; 1.5 h, no amino acids): 5.39
pH ([4]; 2.0 h, no amino acids): 5.32
pH ([4]; 3.0 h, no amino acids): 5.38
pH ([4]; 4.0 h, no amino acids): 5.37
Mean pH [4]: 5.36
effect on acid production ([4]; statement in words): never had a statistically significally effect; also recorded: non-cariogenic but not anti-cariogenic; also recorded: gave about the same mean pH as when carbohydrate was excluded
degree of adhesion (S. mutans [5]; Mann Whitney U-test, statement in words): appeared to cause an increase rather than a decrease
Coverage (%) after 0.5 h (S. mutans [5]; no amino acid): 42.31%
Coverage (%) after 4.0 h (S. mutans [5]; no amino acid): 74.21%
extracellular coating and size of clumps of adherent cells (S. mutans [6]): No such effect was observed

OC[C@H]1O[C@@](CO)(O[C@H]2O[C@H](CO)[C@H](Cl)[C@H](O)[C@H]2O)[C@@H](O)[C@@H]1O [compound 2, 4-chloro-4-deoxy-α-D-galactopyranosyl-β-D-fructofuranoside]
sweetness relative to sucrose [2]: do not possess such strong sweetening action

OC[C@H]1O[C@@](CCl)(O[C@H]2O[C@H](CO)[C@H](Cl)[C@H](O)[C@H]2O)[C@@H](O)[C@@H]1O [compound 3, 4-chloro-4-deoxy-α-D-galactopyranosyl-1-chloro-1-deoxy-β-D-fructofuranoside]
sweetness relative to sucrose [2]: many times sweeter than sucrose

O[C@@H]1[C@@H](O)[C@@H](O[C@]2(CCl)O[C@H](CCl)[C@@H](O)[C@@H]2O)O[C@H](CCl)[C@@H]1Cl [compound 8, 4,6-dichloro-4,6-dideoxy-α-D-galactopyranosyl-1,6-dichloro-1,6-dideoxy-β-D-fructofuranoside]
sweetness relative to sucrose [2]: many times sweeter than sucrose

O[C@@H]1[C@@H](O)[C@@H](O[C@]2(CCl)O[C@H](CCl)[C@@H](O)[C@@H]2O)O[C@H](CCl)[C@H]1Cl [compound 9, 4,6,1',6'-tetrachloro-4,6,1',6'-tetradeoxysucrose]
sweetness relative to sucrose [2]: many times sweeter than sucrose
